The values below come from US8481576B2 (Abbott GmbH & Co. KG, priority 2004, dated 2013).

Where a name gives a salt, the structure may show the parent alone.

T1 sequence (P47898 whole entry): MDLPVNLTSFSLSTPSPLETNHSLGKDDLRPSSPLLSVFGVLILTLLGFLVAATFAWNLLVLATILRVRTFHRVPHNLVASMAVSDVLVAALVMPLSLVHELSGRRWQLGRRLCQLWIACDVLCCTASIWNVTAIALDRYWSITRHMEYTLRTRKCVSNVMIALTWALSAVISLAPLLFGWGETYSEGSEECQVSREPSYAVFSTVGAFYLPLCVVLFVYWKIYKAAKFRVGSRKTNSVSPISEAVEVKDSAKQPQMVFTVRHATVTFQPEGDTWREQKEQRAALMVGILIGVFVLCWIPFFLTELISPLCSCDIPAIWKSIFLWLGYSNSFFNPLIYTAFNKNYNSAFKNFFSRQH

The test concerns the target T1, h5-HT5A receptor (Homo sapiens, UniProt P47898).
T1 construct: expressed in transfected cells; host or cells: HEK293
Kind of test: [3H]5-CT binding assay h5-HT5A. As to conditions: membranes from HEK293 cells expressing h5-HT5A, 2.5 nM [3H]5-CT; read-out: Binding affinity 5-HT5A (Ki). An outline of the steps:
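Membranes from HEK293 cells stably expressing h5-HT5A incubated with 2.5 nM [3H]5-CT and compound in 100 mM Tris-HCl pH 7.7, 1 mM EDTA, 75 min at 30° C. Nonspecific binding with 10 μM methiothepine; filtration and scintillation counting give Ki or IC50.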
Take `COc1cccc(Cl)c1CNC(=N)Nc1nc(-c2ccc(Cl)cn2)cs1` [Example 134, N-(2-chloro-6-methoxybenzyl)-N′-[4-(5-chloropyridine-2-yl)-1,3-thiazole-2-yl]guanidine]: the inhibition constant Ki – broadly, the equilibrium dissociation constant of an inhibitor or competing ligand from its target – lay within 50 to 500 nM.

With `COc1cccc(Cl)c1CNC(=N)Nc1nc(-c2ncccn2)cs1` [Example 135, N-(2-chloro-6-methoxybenzyl)-N′-(4-pyrimidine-2-yl-1,3-thiazole-2-yl)guanidine], the inhibition constant (Ki) was less than 50 nM.

Consider `COc1cccc(Cl)c1CNC(=N)Nc1nc(-c2ccc(F)cc2)cs1` [Example 136, N-(2-chloro-6-methoxybenzyl)-N′-[4-(4-fluorophenyl)-1,3-thiazole-2-yl]guanidine], for which the inhibition constant Ki fell in the range of 50 to 500 nM.

As to `COc1cccc(C)c1CNC(=N)Nc1nc(-c2ccc(Cl)cn2)cs1` [Example 137, N-[4-(5-chloropyridine-2-yl)-1,3-thiazole-2-yl]-N′-(2-methoxy-6-methylbenzyl)guanidine], the Ki is greater than 500 nM.

Take `COc1cccc(C)c1CNC(=N)Nc1nc(-c2ccc(F)cc2)cs1` [Example 138, N-[4-(4-fluorophenyl)-1,3-thiazole-2-yl]-N′-(2-methoxy-6-methylbenzyl)guanidine]: the inhibitory constant (Ki) is less than 50 nM.

As to `COc1cccc(C)c1CNC(=N)Nc1nc(-c2ncccn2)cs1` [Example 139, N-(2-methoxy-6-methylbenzyl)-N′-(4-pyrimidine-2-yl-1,3-thiazole-2-yl)guanidine], the inhibition constant (Ki) was less than 50 nM.

Take `COc1cccc(C)c1CNC(=N)Nc1nc(-c2ccccn2)cs1` [Example 140, N-(2-methoxy-6-methylbenzyl)-N′-(4-pyridine-2-yl-1,3-thiazole-2-yl)guanidine]: the Ki was less than 50 nM.

Turning to `COc1cccc(F)c1CNC(=N)Nc1nc(-c2ccc(F)cc2)cs1` [Example 141, N-(2-fluoro-6-methoxybenzyl)-N′-[4-(4-fluorophenyl)-1,3-thiazole-2-yl]guanidine], the Ki was in the range of 50 to 500 nM.

For the molecule `COc1cccc(OC)c1CNC(=N)Nc1nc(-c2ccc(F)cc2O)cs1` [Example 142, N-(2,6-dimethoxybenzyl)-N′-[4-(4-fluoro-2-hydroxyphenyl)-1,3-thiazole-2-yl]guanidine], the Ki is less than 50 nM.

`COc1cccc(OC)c1CNC(=N)Nc1nc(Cc2ccc(F)cc2)cs1` [Example 143, N-(2,6-dimethoxybenzyl)-N′-[4-(4-fluorobenzyl)-1,3-thiazole-2-yl]guanidine]: the inhibition constant Ki was less than 50 nM.

Take `COc1cccc(OC)c1CNC(=N)Nc1nc(-c2ccc(F)cn2)cs1` [Example 144, N-(2,6-dimethoxybenzyl)-N′-[4-(5-fluoropyridine-2-yl)-1,3-thiazole-2-yl]guanidine]: the Ki was less than 50 nM.

Take `COc1cccc(OC)c1CNC(=N)Nc1nc(-c2ncc(F)cc2F)cs1` [Example 145, N-[4-(3,5-difluoropyridine-2-yl)-1,3-thiazole-2-yl]-N′-(2,6-dimethoxybenzyl)guanidine]: the inhibition constant Ki was less than 50 nM.

`COc1ccc2ccccc2c1CNC(=N)Nc1nc(-c2ccccc2)cs1` [Example 146, N-[(2-methoxy-1-naphthyl)methyl]-N′-(4-phenyl-1,3-thiazole-2-yl)guanidine]: the Ki fell in the range of 50 to 500 nM.

Take `COc1cccc(OC)c1CNC(=N)Nc1nc(C2CCCN2)cs1` (stereo not drawn) [Example 147, N-(2,6-dimethoxybenzyl)-N′-(4-pyrrolidine-2-yl-1,3-thiazole-2-yl)guanidine hydrochloride]: the inhibitory constant (Ki) is less than 50 nM.

As for `COc1cccc(OC)c1CNC(=N)Nc1nc(C2CCCN2C(C)=O)cs1` (stereo not drawn) [Example 148, N-[4-(1-acetylpyrrolidine-2-yl)-1,3-thiazole-2-yl]-N′-(2,6-dimethoxybenzyl)guanidine], the Ki was less than 50 nM.

`COc1cccc(OC)c1CNC(=N)Nc1nc(C2CCCN2C)cs1` (stereo not drawn) [Example 149, N-(2,6-dimethoxybenzyl)-N′-[4-(1-methylpyrrolidine-2-yl)-1,3-thiazole-2-yl]guanidine]: the Ki is less than 50 nM.

`COc1cccc(OC)c1CNC(=N)Nc1nc(C2CCCN2S(=O)(=O)c2ccccc2)cs1` (stereo not drawn) [Example 150, N-(2,6-dimethoxybenzyl)-N′-{4-[1-(phenylsulfonyl)pyrrolidine-2-yl]-1,3-thiazole-2-yl}guanidine]: the inhibitory constant (Ki) is less than 50 nM.

With `COc1cccc(OC)c1CNC(=N)Nc1nc(C2CCCN2Cc2ccccc2)cs1` (stereo not drawn) [Example 151, N-[4-(1-benzylpyrrolidine-2-yl)-1,3-thiazole-2-yl]-N′-(2,6-dimethoxybenzyl)guanidine], the inhibition constant Ki was less than 50 nM.

For `COc1cccc(Cl)c1CNC(=N)Nc1nc(-c2ncc(F)cc2F)cs1` [Example 152, N-(2-chloro-6-methoxybenzyl)-N′-[4-(3,5-difluoropyridine-2-yl)-1,3-thiazole-2-yl]guanidine], the inhibition constant Ki is less than 50 nM.

As to `COc1cccc(OC)c1CNC(=N)Nc1nc(-c2ccc(F)cc2OCCN2CCOCC2)cs1` [Example 153, N-(2,6-dimethoxybenzyl)-N′-{4-[4-fluoro-2-(2-morpholine-4-ylethoxy)phenyl]-1,3-thiazole-2-yl}guanidine], the Ki was less than 50 nM.

With `COc1cccc(OC)c1CNC(=N)Nc1nc(CN)cs1` [Example 154, N-[4-(aminomethyl)-1,3-thiazole-2-yl]-N′-(2,6-dimethoxybenzyl)guanidine hydrochloride], the Ki is less than 50 nM.

As to `COc1cccc(OC)c1CNC(=N)Nc1nc(CNC(=O)c2ccccc2)cs1` [Example 155, N-[(2-{[[(2,6-dimethoxybenzyl)amino](imino)methyl]amino}-1,3-thiazole-4-yl)methyl]benzamide], the Ki is less than 50 nM.

In the case of `COc1cccc(OC)c1CNC(=N)Nc1nc(C2CCCN2C(C)C)cs1` (stereo not drawn) [Example 156, N-(2,6-dimethoxybenzyl)-N′-[4-(1-isopropylpyrrolidine-2-yl)-1,3-thiazole-2-yl]guanidine], the Ki fell in the range of 50 to 500 nM.

In the case of `CCCCS(=O)(=O)NCc1csc(NC(=N)NCc2c(OC)cccc2OC)n1` [Example 157, N-[(2-{[[(2,6-dimethoxybenzyl)amino](imino)methyl]amino}-1,3-thiazole-4-yl)methyl]butane-1-sulfonamide], the inhibitory constant (Ki) is less than 50 nM.

For `COc1cccc(OC)c1CNC(=N)Nc1nc(CN(C)C)cs1` [Example 158, N-(2,6-Dimethoxybenzyl)-N′-{4-[(dimethylamino)methyl]-1,3-thiazole-2-yl}guanidine acetate], the Ki is less than 50 nM.

With `COC(=O)NCc1csc(NC(=N)NCc2c(OC)cccc2OC)n1` [Example 159, Methyl[(2-{[[(2,6-dimethoxybenzyl)amino](imino)methyl]amino}-1,3-thiazole-4-yl)methyl]carbamate], the inhibitory constant (Ki) was less than 50 nM.

As to `COC(=O)c1sc(NC(=N)NCc2c(OC)cccc2OC)nc1-c1ccc(F)cc1` [Example 160, Methyl-2-{[[(2,6-dimethoxybenzyl)amino](imino)methyl]amino}-4-(4-fluorophenyl)-1,3-thiazole-5-carboxylate], the Ki is less than 50 nM.

On to `COc1cccc(OC)c1CNC(=N)Nc1nc(C2CCNCC2)cs1` [Example 162, N-(2,6-dimethoxybenzyl)-N′-(4-piperidine-4-yl-1,3-thiazole-2-yl)guanidine hydrochloride], for which the inhibition constant Ki was less than 50 nM.

In the case of `COc1cccc(OC)c1CNC(=N)Nc1nc(C2CCN(S(C)(=O)=O)CC2)cs1` [Example 163, N-(2,6-dimethoxybenzyl)-N′-{4-[1-(methylsulfonyl)piperidine-4-yl]-1,3-thiazole-2-yl}guanidine], the Ki was less than 50 nM.

For the molecule `COc1cccc(OC)c1CNC(=N)Nc1nc(-c2ncccc2Cl)cs1` [Example 164, N-[4-(3-chloropyridine-2-yl)-1,3-thiazole-2-yl]-N′-(2,6-dimethoxybenzyl)guanidine], the inhibition constant Ki was less than 50 nM.

Take `COc1cccc(OC)c1CNC(=N)Nc1nc(-c2ccnc3c(F)cccc23)cs1` [Example 165, N-(2,6-dimethoxybenzyl)-N′-[4-(8-fluorochinoline-4-yl)-1,3-thiazole-2-yl]guanidine]: the Ki was less than 50 nM.

For `COc1ccccc1CNC(=N)Nc1nc(N2CCCCC2)cs1` [Example 166, 1-[2-({imino[(2-methoxybenzyl)amino]methyl}amino)-1,3-thiazole-4(5H)-ylidene]piperidinium chloride], the Ki is greater than 500 nM.

In the case of `COc1cccc(OC)c1CNC(=N)Nc1nc(N2CCOCC2)cs1` [Example 167, 4-[2-{[[(2,6-dimethoxybenzyl)amino](imino)methyl]amino}-1,3-thiazole-4(5H)-yliden]morpholine-4-ium chloride], the inhibition constant Ki was 50 to 500 nM.

Turning to `COc1ccccc1CNC(=N)Nc1nc2ccc(C)cc2s1` [Example 168, N-(2-methoxybenzyl)-N′-(6-methyl-1,3-benzothiazole-2-yl)guanidine fumarate], the Ki lay in the range of 50 to 500 nM.

`COc1cccc(OC)c1CNC(=N)Nc1nc2ccc(C)cc2s1` [Example 169, N-(2,6-dimethoxybenzyl)-N′-(6-methyl-1,3-benzothiazole-2-yl)guanidine fumarate]: the inhibitory constant (Ki) is less than 50 nM.

In the case of `CCOc1ccc2nc(NC(=N)NCc3ccccc3OC)sc2c1` [Example 170, N-(6-ethoxy-1,3-benzothiazole-2-yl)-N′-(2-methoxybenzyl)guanidine fumarate], the Ki fell in the range of 50 to 500 nM.

As for `COc1cccc(OC)c1CNC(=N)Nc1nc2cc(Cl)c(C)cc2s1` [Example 171, N-(5-chlor-6-methyl-1,3-benzothiazole-2-yl)-N′-(2,6-dimethoxybenzyl)guanidine difumarate], the inhibition constant (Ki) fell in the range of 50 to 500 nM.

As to `COc1cccc(OC)c1CNC(=N)Nc1nc2cc(C)c(C)cc2s1` [Example 172, N-(2,6-dimethoxybenzyl)-N′-(5,6-dimethyl-1,3-benzothiazole-2-yl)guanidine fumarate], the Ki is less than 50 nM.

As for `COc1ccccc1CNC(=N)Nc1nc(C)c(C)o1` [Example 173, N-(4,5-dimethyl-1,3-oxazole-2-yl)-N′-(2-methoxybenzyl)guanidine], the Ki is 50 to 500 nM.
